The test system of one test is resistant Cooperia spp. The test can be described thus: Trial 3: oral albendazole vs prototype albendazole bolus in adult ewes, worm count (small intestine). To be noted: oral 5.0 mg/kg once.
Test [1] concerns resistant Haemonchus Contortus. Kind of test: Trial 3: oral albendazole vs prototype albendazole bolus in adult ewes, worm count (abomasa). The following applies: oral 5.0 mg/kg once.
Test [2] has as its system resistant Trichostrongylus axei. Described as above. To be noted: oral 5.0 mg/kg once.
A further test deals with resistant parasites. The following applies: Farm 4 from Anderson et al, 1991; cited from earlier work.
Test [3] has as its system albendazole resistant Nematodirus spp. The test can be described thus: Trial 1: repeated oral dosing of albendazole in lambs, worm count (small intestine).
Test [4] concerns albendazole resistant Ostertagia Circumcincta. The test can be described thus: Trial 1: repeated oral dosing of albendazole in lambs, worm count (abomasa).
Test [5] concerns resistant Ostertagia circumcincta. The test can be described thus: Trial 3: oral albendazole vs prototype albendazole bolus in adult ewes, worm count (abomasa). To be noted: oral 5.0 mg/kg once.
Test [6] deals with albendazole resistant Cooperia spp. Kind of test: Trial 1: repeated oral dosing of albendazole in lambs, worm count (small intestine).
The test system of test [7] is albendazole resistant Trichostrongylus axei. Kind of test: Trial 1: repeated oral dosing of albendazole in lambs, worm count (abomasa).
Another test deals with adult liver fluke. The following applies: oral, Coles & Stafford 2001; cited from earlier work.
For another test, the system named is immature flukes. To be noted: in vivo; cited from earlier work.
In test [8] the test system is abamectin-resistant Cooperia spp. Kind of test: Trial 2: repeated oral dosing of abamectin in lambs, worm count. Format: in vivo.
Test [9] has as its system abamectin-resistant Ostertagia circumcincta. The description is as above. Format: in vivo.
Test [10] relates to multiple drug resistant Trichostrongylus colubriformis. Kind of test: Magnum combination bolus trial in sheep, efficacy based on worm counts. Format: in vivo. To be noted: single standard oral doses. As for the experimental part:
(§1) This concept has again been tested for the present invention by constructing and testing for efficacy a Magnum bolus releasing 2 actives simultaneously. A prototype sheep bolus designed to release 5 mg/kg of albendazole and 0.18 mg/kg abamectin in a 50 kg sheep was tested against two species of multiple drench resistant parasites. Trial lambs ranged in weight from 48-55.5 kg.

Test [11] has as its system multiple drug resistant Ostertagia circumcincta. Described as above. In kind it is in vivo. The following applies: single standard oral doses. As for the experimental part:
as §1

The subject of test [12] is abamectin-resistant Trichostrongylus colubriformis. Kind of test: Trial 2: repeated oral dosing of abamectin in lambs, worm count. Format: in vivo.
The test system of a further test is parasites of goats. The following applies: Pomroy et al, 1992; cited from earlier work.

With `CCCSc1ccc2nc(NC(=O)OC)[nH]c2c1` [Alb, albendazole], the “% reduction in worm count Cooperia spp.” value is 59.3% in the test with resistant Cooperia spp.; 57.1% in test [6] (1.75 mg/kg for 7 days); 67.5% in [6] (2.5 mg/kg for 7 days); 83.3% in test [6] (3.75 mg/kg for 7 days); 86.9% in test [6] (5 mg/kg for 7 days); 36.9% in test [6] (5 mg/kg once). In test [1], the “% reduction in worm count Haemonchus Contortus” value was determined as 91.4%. Besides, the “% reduction in worm count Trichostrongylus axei” value in test [2] was 91.8%; in test [7] (1.75 mg/kg for 7 days), 87.5%; in test [7] (2.5 mg/kg for 7 days), 90.2%; in [7] (3.75 mg/kg for 7 days) it was 96.8%; in [7] (5 mg/kg for 7 days), 97.6%; in test [7] (5 mg/kg once), 82.9%. The Efficacy with resistant parasites is on record as 73%. The “% reduction in worm count Nematodirus spp.” value came out at 58.9% in test [3] (1.75 mg/kg for 7 days); 69.0% in [3] (2.5 mg/kg for 7 days); 88.1% in [3] (3.75 mg/kg for 7 days); 73.9% in [3] (5 mg/kg for 7 days); 71.2% in test [3] (5 mg/kg once). Besides, the “% reduction in worm count Ostertagia circumcincta” value in [4] (1.75 mg/kg for 7 days) came to 74.9%; in test [4] (2.5 mg/kg for 7 days) it was 57.0%; in test [4] (3.75 mg/kg for 7 days), 70.9%; in [4] (5 mg/kg for 7 days), 92.3%; in test [4] (5 mg/kg once), 42.7%; in test [5], 59.3%. The “level of efficacy against adult liver fluke” value with adult liver fluke was “variable and less than desirable”. The “efficacy against immature flukes” value in the test with immature flukes is “ineffective”.

Consider `c1ccc([C@H]2CN3CCSC3=N2)cc1` [Levamisole], for which the Efficacy in the test with resistant parasites is 88%.

Take `CO/N=C1\C[C@]2(C[C@@H]3C[C@@H](C/C=C(\C)C[C@@H](C)/C=C/C=C4\CO[C@@H]5[C@H](O)C(C)=C[C@@H](C(=O)O3)[C@]45O)O2)O[C@H](/C(C)=C/C(C)C)[C@H]1C` [Moxidectin]: the “% reduction in worm count Cooperia spp.” value in test [8] (0.2 mg/kg once) was 99.1%. The “% reduction in worm count Ostertagia circumcincta” value in test [9] (0.2 mg/kg once) is 76.3%. The “Efficacy based on worm counts Trichostrongylus colubriformis” value in test [10] is on record as 90.6. For the same compound, the “Efficacy based on worm counts Ostertagia circumcincta” value in [11] is 59.9. Further, the “% reduction in worm count Trichostrongylus colubriformis” value in [12] (0.2 mg/kg once) amounted to 72.5%.

In the case of `COC(=O)Nc1nc2ccc([S+]([O-])c3ccccc3)cc2[nH]1` (centres unmarked) [oxfendazole], in the test with parasites of goats, the Efficacy was 82%.

In the case of abamectin, the “% reduction in worm count Cooperia spp.” value was 99.1% in test [8] (0.07 mg/kg for 7 days), 99.6% in [8] (0.113 mg/kg for 7 days), 100.0% in [8] (0.18 mg/kg for 7 days) and 94.9% in test [8] (0.2 mg/kg once). Further, the “% reduction in worm count Ostertagia circumcincta” value in test [9] (0.07 mg/kg for 7 days) is 77.2%; in test [9] (0.113 mg/kg for 7 days), 89.3%; in [9] (0.18 mg/kg for 7 days) it was 96.4%; in test [9] (0.2 mg/kg once) it was 45.0%. The “% reduction in worm count Trichostrongylus colubriformis” value in [12] (0.07 mg/kg for 7 days) stood at 47.3%; in test [12] (0.113 mg/kg for 7 days), 55.3%; in [12] (0.18 mg/kg for 7 days), 77.1%; in [12] (0.2 mg/kg once) it was 60.7%.

As to ivermectin, the Efficacy in the test with parasites of goats is 27%.

The record behind these values is patent publication US20090017089A1, “Multiple active agents such as anthelmintics sustained release delivery device” (priority 2003, published 2009).
